Measurements: publication PMC11591947, “Peroxidase-like Nanoparticles of Noble Metals Stimulate Increasing Sensitivity of Flavocytochrome b2-Based L-Lactate Biosensors” (Biosensors, 2024)

Target: T1, Flavocytochrome b2 (Fcb2, EC 1.1.2.3) (Ogataea polymorpha, UniProt A0A9P8PNE1)
T1 construct: gene OGATHE_001663
Assay: chronoamperometry on Fcb2/graphite electrode biosensor
Assay type: biochemical
Settings: immobilised enzyme (0.3 units, Nafion film, no nanoparticles); 1 mM PMS; +200 mV vs Ag/AgCl; apparent value of bioelectrode

T1 sequence (A0A9P8PNE1 55-553): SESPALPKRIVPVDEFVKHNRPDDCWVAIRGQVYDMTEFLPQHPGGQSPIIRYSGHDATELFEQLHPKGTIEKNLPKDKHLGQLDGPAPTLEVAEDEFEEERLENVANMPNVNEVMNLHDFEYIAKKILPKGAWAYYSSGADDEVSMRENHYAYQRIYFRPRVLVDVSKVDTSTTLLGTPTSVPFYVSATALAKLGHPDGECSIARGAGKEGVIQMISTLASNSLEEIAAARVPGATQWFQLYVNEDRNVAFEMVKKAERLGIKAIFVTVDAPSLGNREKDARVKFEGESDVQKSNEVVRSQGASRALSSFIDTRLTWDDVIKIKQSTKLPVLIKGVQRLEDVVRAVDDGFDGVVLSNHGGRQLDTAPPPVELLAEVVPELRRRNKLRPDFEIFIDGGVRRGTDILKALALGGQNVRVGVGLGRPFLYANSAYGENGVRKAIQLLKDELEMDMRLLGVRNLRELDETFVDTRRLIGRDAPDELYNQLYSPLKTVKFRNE

## C[C@H](O)C(=O)O [L-lactate]
  KM^app: Calibration curves illustrating the current dependence on the L-lactate concentration for the ABS
